Assay results as given in ChEMBL document CHEMBL5465560, “Selectivity Literature for EUbOPEN Chemogenomic Library” (2024).

Legend:
[1] = target: Maternal embryonic leucine zipper kinase (Homo sapiens) (UniProt Q14680); assay: Selectivity interaction (Ambit KINOMEscan and KiNATiv profiling in Jurkat cells) EUB0000090b MELK; format: cell-based; conditions: at 1 µM
[2] = target: Mitogen-activated protein kinase kinase kinase 11 (Homo sapiens) (UniProt Q16584); assay: Selectivity interaction (ActivX KiNativ screen (kinase selectivity in THP-1 cell lysates)) EUB0000639a MAP3K11; format: subcellular; conditions: lysate, at 0.04 µM
Mitogen-activated protein kinase kinase kinase 11 (Homo sapiens), sequence (Q16584 whole entry, looked up): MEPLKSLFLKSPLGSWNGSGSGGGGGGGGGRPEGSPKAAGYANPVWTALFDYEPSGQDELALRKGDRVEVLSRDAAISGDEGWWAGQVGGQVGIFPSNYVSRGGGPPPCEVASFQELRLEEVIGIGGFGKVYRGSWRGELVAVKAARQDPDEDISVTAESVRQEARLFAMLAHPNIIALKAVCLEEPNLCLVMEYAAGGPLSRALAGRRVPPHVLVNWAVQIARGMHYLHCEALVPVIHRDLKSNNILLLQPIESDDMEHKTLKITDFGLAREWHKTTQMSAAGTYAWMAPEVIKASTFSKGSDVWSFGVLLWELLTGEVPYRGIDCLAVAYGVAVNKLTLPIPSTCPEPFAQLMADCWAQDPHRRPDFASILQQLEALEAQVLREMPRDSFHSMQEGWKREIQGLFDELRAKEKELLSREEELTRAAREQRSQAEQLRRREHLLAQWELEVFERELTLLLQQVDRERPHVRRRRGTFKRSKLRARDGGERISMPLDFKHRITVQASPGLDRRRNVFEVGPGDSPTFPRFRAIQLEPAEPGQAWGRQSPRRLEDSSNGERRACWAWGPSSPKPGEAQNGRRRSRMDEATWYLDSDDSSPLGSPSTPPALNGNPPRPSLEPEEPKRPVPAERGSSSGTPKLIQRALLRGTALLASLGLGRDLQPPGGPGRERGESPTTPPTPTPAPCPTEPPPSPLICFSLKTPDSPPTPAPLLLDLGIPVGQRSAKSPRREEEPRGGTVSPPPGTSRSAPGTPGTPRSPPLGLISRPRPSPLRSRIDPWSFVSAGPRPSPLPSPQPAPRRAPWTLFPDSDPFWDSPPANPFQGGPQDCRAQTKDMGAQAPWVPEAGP

[3] = target: Serine/threonine-protein kinase N1 (Homo sapiens, UniProt Q16512); assay: Selectivity interaction (Kinase panel (Invitrogen)) EUB0000639a PKN1; conditions: at 200 nM
[4] = target: [Pyruvate dehydrogenase (acetyl-transferring)] kinase isozyme 1, mitochondrial (Homo sapiens, UniProt Q15118); assay: Selectivity interaction (Kinase panel (Invitrogen)) EUB0000639a PDK1; conditions: at 200 nM
[5] = target: Serine/threonine-protein kinase PAK 2 (Homo sapiens) (UniProt Q13177); assay: Selectivity interaction (Kinase panel (Z-LYTE Assay)) EUB0001632a PAK2; conditions: at 10 µM
Serine/threonine-protein kinase PAK 2 (Homo sapiens), sequence (Q13177 whole entry): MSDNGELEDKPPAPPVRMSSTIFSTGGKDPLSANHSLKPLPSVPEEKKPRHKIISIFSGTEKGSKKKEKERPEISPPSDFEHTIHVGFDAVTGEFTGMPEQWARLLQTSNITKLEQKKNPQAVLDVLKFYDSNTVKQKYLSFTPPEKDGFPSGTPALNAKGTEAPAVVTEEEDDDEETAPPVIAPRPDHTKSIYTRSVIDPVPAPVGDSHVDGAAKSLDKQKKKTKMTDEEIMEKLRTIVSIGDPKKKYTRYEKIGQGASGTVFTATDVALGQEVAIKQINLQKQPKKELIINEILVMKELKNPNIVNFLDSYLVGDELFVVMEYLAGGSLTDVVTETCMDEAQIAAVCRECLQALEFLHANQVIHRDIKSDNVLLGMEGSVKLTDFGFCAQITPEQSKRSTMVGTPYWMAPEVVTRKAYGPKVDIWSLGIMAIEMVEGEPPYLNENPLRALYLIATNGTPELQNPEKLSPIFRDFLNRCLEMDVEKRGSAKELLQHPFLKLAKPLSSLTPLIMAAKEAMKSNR

[6] = target: Serine/threonine-protein kinase N2 (Homo sapiens, UniProt Q16513); assay: Selectivity interaction (LanthaScreen Eu Kinase Binding Assay) EUB0001632a PKN2; conditions: at 10 µM
[7] = target: Phosphatidylinositol 4-phosphate 5-kinase type-1 alpha (Homo sapiens) (UniProt Q99755); conditions: at 10 µM
Phosphatidylinositol 4-phosphate 5-kinase type-1 alpha (Homo sapiens), sequence (Q99755 whole entry): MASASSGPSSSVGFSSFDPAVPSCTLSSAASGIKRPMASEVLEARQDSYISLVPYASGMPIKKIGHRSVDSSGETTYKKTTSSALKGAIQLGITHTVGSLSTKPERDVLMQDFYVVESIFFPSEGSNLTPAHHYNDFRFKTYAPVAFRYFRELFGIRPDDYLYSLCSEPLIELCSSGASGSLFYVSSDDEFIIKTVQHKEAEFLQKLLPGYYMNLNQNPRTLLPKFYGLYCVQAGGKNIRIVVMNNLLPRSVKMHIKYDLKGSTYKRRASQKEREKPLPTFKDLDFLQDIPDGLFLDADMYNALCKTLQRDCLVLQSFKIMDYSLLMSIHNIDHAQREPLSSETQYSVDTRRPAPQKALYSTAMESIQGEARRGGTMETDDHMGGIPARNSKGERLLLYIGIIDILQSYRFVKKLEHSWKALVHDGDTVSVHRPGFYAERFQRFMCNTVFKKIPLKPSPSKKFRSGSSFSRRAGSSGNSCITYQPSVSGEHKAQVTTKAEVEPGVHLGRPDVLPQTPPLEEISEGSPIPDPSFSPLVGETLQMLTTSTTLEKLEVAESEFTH

[8] = target: Serine/threonine-protein kinase PLK3 (Homo sapiens, UniProt Q9H4B4); assay: Selectivity interaction (ProQinase) EUB0000171b PLK3
Serine/threonine-protein kinase PLK3, sequence (Q9H4B4 whole entry, looked up): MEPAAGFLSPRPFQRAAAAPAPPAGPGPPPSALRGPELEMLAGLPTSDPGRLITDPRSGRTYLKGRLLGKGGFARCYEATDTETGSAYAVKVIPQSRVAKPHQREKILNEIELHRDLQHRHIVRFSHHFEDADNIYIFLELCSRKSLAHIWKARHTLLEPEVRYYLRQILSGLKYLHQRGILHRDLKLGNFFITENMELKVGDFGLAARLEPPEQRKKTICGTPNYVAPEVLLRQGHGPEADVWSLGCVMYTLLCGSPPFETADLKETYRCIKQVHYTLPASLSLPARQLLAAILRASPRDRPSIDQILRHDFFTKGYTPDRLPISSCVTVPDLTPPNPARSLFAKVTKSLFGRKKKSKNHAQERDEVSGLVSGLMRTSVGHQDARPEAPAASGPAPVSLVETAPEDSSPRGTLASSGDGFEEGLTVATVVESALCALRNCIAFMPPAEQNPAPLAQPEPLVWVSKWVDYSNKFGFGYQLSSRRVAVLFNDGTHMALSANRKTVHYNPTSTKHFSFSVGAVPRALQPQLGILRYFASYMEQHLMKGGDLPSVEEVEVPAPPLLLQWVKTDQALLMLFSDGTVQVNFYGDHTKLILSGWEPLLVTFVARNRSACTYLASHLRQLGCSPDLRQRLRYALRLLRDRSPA

[9] = target: Eukaryotic translation initiation factor 2-alpha kinase 1 (Homo sapiens) (UniProt Q9BQI3); assay: Selectivity interaction (ProQinase) EUB0000171b EIF2AK1
Eukaryotic translation initiation factor 2-alpha kinase 1 (Homo sapiens), sequence (Q9BQI3 whole entry): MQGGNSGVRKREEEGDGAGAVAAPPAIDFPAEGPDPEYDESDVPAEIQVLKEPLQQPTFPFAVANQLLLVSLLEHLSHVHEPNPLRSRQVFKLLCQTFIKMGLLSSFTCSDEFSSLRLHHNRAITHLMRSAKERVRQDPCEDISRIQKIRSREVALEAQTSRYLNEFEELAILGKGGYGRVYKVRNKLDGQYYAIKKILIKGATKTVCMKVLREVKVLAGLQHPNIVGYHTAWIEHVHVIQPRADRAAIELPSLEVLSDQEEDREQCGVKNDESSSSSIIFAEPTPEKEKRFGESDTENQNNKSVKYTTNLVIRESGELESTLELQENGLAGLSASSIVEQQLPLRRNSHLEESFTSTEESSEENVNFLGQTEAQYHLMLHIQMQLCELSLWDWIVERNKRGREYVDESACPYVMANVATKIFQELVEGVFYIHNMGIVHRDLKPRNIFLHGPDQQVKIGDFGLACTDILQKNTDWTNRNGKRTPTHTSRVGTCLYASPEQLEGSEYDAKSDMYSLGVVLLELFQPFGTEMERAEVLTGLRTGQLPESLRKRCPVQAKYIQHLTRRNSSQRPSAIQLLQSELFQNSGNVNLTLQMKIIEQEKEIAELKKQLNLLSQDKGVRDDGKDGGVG

[10] = target: Myosin light chain kinase, smooth muscle (Homo sapiens, UniProt Q15746); assay: Selectivity interaction (ActivX KiNativ screen (ex vivo kinase selectivity in human PBMCs)) EUB0001619a MYLK; format: cell-based; conditions: PBMC, at 1 µM
[11] = target: T1, Ephrin type-B receptor 3 (Homo sapiens) (UniProt P54753); assay: Selectivity interaction (SelectScreen profiling (Invitrogen)) EUB0000607a EPHB3; conditions: at 2 µM
T1 sequence (whole entry): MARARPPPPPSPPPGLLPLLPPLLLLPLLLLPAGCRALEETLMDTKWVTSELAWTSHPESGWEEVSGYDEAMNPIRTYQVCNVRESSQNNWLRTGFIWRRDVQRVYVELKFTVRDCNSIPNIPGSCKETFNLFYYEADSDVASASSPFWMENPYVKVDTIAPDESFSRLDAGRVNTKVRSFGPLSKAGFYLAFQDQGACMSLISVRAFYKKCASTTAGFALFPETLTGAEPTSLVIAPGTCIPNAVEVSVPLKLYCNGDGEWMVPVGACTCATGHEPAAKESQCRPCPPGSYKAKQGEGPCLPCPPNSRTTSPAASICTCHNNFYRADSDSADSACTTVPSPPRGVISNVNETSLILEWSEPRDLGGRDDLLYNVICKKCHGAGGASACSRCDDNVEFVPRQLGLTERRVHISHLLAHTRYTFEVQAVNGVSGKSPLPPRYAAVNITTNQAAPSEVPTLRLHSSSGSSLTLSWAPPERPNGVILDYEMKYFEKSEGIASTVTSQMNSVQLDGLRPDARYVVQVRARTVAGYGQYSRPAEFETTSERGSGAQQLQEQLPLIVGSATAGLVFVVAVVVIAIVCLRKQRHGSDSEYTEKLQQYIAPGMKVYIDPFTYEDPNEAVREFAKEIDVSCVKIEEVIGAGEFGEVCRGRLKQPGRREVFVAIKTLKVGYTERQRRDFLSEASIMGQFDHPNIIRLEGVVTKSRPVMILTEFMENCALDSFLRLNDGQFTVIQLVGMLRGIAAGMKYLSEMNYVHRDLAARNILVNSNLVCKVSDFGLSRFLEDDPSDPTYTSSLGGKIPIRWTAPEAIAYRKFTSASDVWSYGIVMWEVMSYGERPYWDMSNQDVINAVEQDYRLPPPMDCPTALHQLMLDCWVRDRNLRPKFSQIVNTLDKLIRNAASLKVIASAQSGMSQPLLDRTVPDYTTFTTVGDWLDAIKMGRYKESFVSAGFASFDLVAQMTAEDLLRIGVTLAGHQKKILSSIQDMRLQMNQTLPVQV

[12] = target: Serine/threonine-protein kinase/endoribonuclease IRE1 (Homo sapiens) (UniProt O75460); assay: Selectivity interaction (Kinase panel (KiNativ target engagement assay in Jurkat cells)) EUB0001635a ERN1; format: cell-based; conditions: Selectivity number of off-targets 0.0, Selectivity number of targets 233.0, Source Knowledge https://www.sciencedirect.com/science/article/pii/S2451945619300674?via%3Dihub, at 1 µM
[13] = target: Dual specificity testis-specific protein kinase 1 (Homo sapiens) (UniProt Q15569); assay: Selectivity interaction (KinomeScan (DiscoverX)) EUB0000666a TESK1; conditions: at 10 µM
Dual specificity testis-specific protein kinase 1 (Homo sapiens), sequence (Q15569 whole entry, looked up): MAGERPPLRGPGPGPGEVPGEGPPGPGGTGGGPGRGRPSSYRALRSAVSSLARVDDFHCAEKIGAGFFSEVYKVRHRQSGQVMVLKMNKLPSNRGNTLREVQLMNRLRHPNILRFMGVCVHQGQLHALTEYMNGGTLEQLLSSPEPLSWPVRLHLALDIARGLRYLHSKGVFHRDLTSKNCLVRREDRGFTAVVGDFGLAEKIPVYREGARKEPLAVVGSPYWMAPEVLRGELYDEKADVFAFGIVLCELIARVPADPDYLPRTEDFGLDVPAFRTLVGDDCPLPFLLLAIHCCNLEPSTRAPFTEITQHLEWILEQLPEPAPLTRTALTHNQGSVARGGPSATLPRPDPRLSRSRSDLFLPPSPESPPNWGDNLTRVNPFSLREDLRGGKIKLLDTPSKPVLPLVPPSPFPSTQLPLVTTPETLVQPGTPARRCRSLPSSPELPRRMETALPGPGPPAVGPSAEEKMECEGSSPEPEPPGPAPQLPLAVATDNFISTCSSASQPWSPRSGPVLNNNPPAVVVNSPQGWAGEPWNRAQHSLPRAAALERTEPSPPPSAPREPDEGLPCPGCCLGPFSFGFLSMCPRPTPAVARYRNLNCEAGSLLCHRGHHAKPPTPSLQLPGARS

[14] = target: BMP-2-inducible protein kinase (Homo sapiens) (UniProt Q9NSY1); assay: Selectivity interaction (KinomeScan (DiscoverX)) EUB0000666a BMP2K; conditions: at 10 µM
BMP-2-inducible protein kinase (Homo sapiens), sequence (Q9NSY1 whole entry, looked up): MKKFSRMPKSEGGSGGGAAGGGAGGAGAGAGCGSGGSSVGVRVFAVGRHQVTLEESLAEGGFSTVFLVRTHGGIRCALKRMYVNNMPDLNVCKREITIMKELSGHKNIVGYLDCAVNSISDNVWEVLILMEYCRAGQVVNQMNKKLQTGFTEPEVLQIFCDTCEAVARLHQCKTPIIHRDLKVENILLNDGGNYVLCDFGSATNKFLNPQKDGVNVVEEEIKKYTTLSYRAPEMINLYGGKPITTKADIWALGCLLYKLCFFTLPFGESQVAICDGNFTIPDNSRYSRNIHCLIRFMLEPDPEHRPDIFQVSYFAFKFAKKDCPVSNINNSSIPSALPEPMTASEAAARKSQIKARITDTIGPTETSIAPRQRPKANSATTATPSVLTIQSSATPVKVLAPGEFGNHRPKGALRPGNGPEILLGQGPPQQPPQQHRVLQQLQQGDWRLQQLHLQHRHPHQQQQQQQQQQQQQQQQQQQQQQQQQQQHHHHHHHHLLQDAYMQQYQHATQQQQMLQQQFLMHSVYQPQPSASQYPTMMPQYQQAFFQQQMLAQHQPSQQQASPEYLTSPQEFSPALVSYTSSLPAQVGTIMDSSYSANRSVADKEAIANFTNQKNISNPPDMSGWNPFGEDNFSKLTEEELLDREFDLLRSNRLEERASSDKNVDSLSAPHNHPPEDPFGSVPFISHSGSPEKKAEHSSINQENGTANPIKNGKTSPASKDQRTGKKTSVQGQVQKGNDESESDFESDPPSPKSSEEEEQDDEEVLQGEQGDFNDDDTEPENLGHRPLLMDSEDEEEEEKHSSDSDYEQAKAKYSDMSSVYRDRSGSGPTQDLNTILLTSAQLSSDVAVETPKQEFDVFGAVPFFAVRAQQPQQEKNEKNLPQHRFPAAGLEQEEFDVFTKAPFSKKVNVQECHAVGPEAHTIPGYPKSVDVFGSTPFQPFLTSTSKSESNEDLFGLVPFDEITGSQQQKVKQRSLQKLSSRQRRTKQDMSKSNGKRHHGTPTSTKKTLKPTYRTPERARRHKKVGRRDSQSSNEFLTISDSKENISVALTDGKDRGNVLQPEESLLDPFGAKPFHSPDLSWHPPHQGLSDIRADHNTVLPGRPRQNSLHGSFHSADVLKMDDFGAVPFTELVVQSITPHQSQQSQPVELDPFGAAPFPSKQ

With `CN(C)C/C=C/C(=O)Nc1ccc(C(=O)N2CCCC(Nc3ncc(Cl)c(-c4c[nH]c5ccccc45)n3)C2)cc1` (stereo unspecified) the % of control [1] was 75%.

`CC[C@@H]1[C@H](F)C(=O)N[C@@H]1COc1nccc2cc(C(N)=O)c(OC)cc12` [ZIMLOVISERTIB] gave a % of inhibition [2] of -8.9%, a % of inhibition [3] of 8.54% and a % of inhibition [4] of 15.8%.

`Cn1cc(-n2cnc3c(NCc4nc5cc(Cl)c(Cl)cc5[nH]4)nc(N4CCOCC4)nc32)cn1` showed a % of control [5] of -1.61% and a % of inhibition [6] of -5.46%.

For `CCN(CC)CCCCNc1ncc2cc(-c3cc(OC)cc(OC)c3)c(NC(=O)NC(C)(C)C)nc2n1`, the % of control [7] was 100%.

Work on `C=CC(=O)Nc1cccc(C(=O)Nc2ccc(Nc3cc(-c4[nH]c(SC)nc4C)ccn3)cc2)c1` yielded a % of control ([8]; at 1 µM) of 103%, a % of control ([8]; at 5 µM) of 75% and a % of control ([9]; at 1 µM) of 85%. For the same molecule, the % of control ([9]; at 5 µM) was 66%.

In the case of `N#Cc1cccc(-c2c[nH]c3ncnc(N4CCOCC4)c23)c1`, the % of inhibition [10] is reported as 16%.

`CNC(=O)Nc1ccc(-c2nc(N3CC4CCC(C3)O4)c3cnn(C4CCC5(CC4)OCCO5)c3n2)cc1` showed a % of inhibition [11] of 3%.

`C=CC(=O)Nc1ccc(C(=O)Nc2[nH]nc3c2CN(C(=O)N[C@H](CN(C)C)c2ccccc2)C3(C)C)cc1` was tested, and the % of engagement [12] was -0.9%.

In the case of `O=C(NOC[C@H](O)CO)c1ccc(F)c(F)c1Nc1ccc(I)cc1F`, the % of control [13] is reported as 98% and the % of control [14] is reported as 91%.
